Blank lines part the entries; values can stand above or below the molecule they belong to.
Experiments:
[1] = test system: HepG2; test: Cytotoxicity against human HepG2 cells assessed as cell viability incubated for 12 days by WST-1 assay; type: functional; details: HepG2, 288 h, time 12 day
[2] = test system: Hepatitis B virus; test: Antiviral activity against HBV transfected in human HB611 cells; type: functional, organism-based
[3] = Inhibition of HBV RNA polymerase; parameters: species or system Hepatitis B virus
[4] = test system: Hepatitis B virus; test: Antiviral activity against HBV transfected in human HB611 cells assessed as reduction of HBV DNA replication incubated for 5 days by q-PCR analysis; type: functional, organism-based; details: HB611, 120 h
[5] = Cytotoxicity against human HB611 cells assessed as reduction in cell viability incubated for 6 to 9 days by celltiter-glo assay; type: functional; details: time 6-9 day
[6] = test system: Hepatitis B virus; test: Antiviral activity against HBV infected in human HepDES19 cells assessed as inhibition of HBV replication by qPCR analysis; type: functional, organism-based
[7] = test system: Hepatitis B virus; test: Antiviral activity against HBV infected in human HepDES19 cells assessed as reduction in HBV replication; type: functional, organism-based
[8] = test system: HepG2; test: Cytotoxicity against human HepG2 cells assessed as reduction in cell viability in presence of lamivudine by MTS assay; type: functional
[9] = test system: HepG2; test: Cytotoxicity against human HepG2 cells assessed as reduction in cell viability by MTS assay; type: functional
[10] = test system: Hepatitis B virus; test: Antiviral activity against wild type HBV infected in human HepG2 cells assessed as reduction in HBV DNA replication by RT-PCR analysis; type: functional, organism-based
[11] = test system: Hepatitis B virus; test: Antiviral activity against HBV infected in human HepG2.2.15.7 cells assessed as reduction in HBV DNA replication by TR-PCR analysis; type: functional, organism-based
[12] = test system: Hepatitis B virus; test: Antiviral activity against lamivudine-resistant HBV infected in human HepG2 cells assessed as reduction in HBV DNA replication by RT-PCR analysis; type: functional, organism-based
[13] = test system: Hepatitis B virus; test: Antiviral activity against HBV infected in human HepG2 2.2.15 cells assessed as reduction in intracellular DNA level; type: functional, organism-based
[14] = test system: HepG2 2.2.15; test: Cytotoxicity against human HepG2 2.2.15 cells assessed as cell viability incubated for 12 days by WST-1 assay; type: functional; details: HepG2 2.2.15, 288 h, time 12 day
[15] = test system: Hepatitis B virus; test: Antiviral activity against HBV infected in human HepG2 2.2.15 cells assessed as reduction in extracellular DNA level; type: functional, organism-based
[16] = Cytotoxicity against human HEK293 cells assessed as reduction in cell viability incubated for 1 hr by MTS assay; type: toxicity, cell-based
[17] = Cytotoxicity against human HepDES19 cells assessed as reduction in cell viability incubated for 1 hr by MTS assay; type: functional
[18] = test system: Hepatitis B virus; test: Antiviral activity against HBV infected in human HepDES19 cells assessed as inhibition of extracellular HBV DNA by qPCR analysis; type: functional, organism-based
[19] = Cytotoxicity against human LX2 cells assessed as reduction in cell viability incubated for 1 hr by MTS assay; type: toxicity, cell-based; details: LX-2 cells
[20] = Cytotoxicity against human primary hepatocytes assessed as cell viability incubated for 72 hrs by LDH release assay; type: toxicity, cell-based, Hepatocyte
[21] = Cytotoxicity against human primary hepatocytes assessed as cell viability incubated for 72 hrs by MTS assay; type: toxicity, cell-based, Hepatocyte
[22] = test system: Hepatitis B virus; test: Antiviral activity against HBV infected in human HepG2-NTCP12 cells assessed as inhibition of extracellular HBV DNA incubated for 2 weeks by SYBR green dye based quantitative PCR analysis; type: functional, organism-based; details: HepG2-NTCP12, 336 h
[23] = test system: Hepatitis B virus; test: Antiviral activity against HBV infected in human HePAD38 cells assessed as reduction in HBV replication by qPCR analysis; type: functional, organism-based
[24] = Cytotoxicity against human HepAD38 cells assessed as reduction in cell viability incubated for 4 days by XTT assay; type: functional; details: HePAD38, 96 h, time 4 day
[25] = Cytotoxicity against human HB611 cells assessed as reduction in cell viability incubated for 3 days by celltiter glo assay; type: functional; details: HB611, 72 h, time 3 day
[26] = test system: Hepatitis B virus; test: Antiviral activity against HBV infected in human HepG2-hNTCP cells assessed as reduction in HBV DNA replication by qRT-PCR analysis; type: functional, organism-based
[27] = Cytotoxicity against human HepG2-hNTCP cells assessed as reduction in cell viability incubated for 3 days by celltiter glo assay; type: functional; details: 72 h, time 3 day
[28] = test system: Hepatitis B virus; test: Antiviral activity against HBV C2 infected in human Huh-7 cells assessed as reduction in HBV DNA production by real-time qPCR analysis; type: functional, organism-based; details: C2, Huh-7
[29] = test system: Hepatitis B virus; test: Antiviral activity against adefovir-resistant HBV infected in human Huh-7 cells assessed as reduction in HBV DNA production by real-time qPCR analysis; type: functional, organism-based
[30] = test system: Hepatitis B virus; test: Antiviral activity against entecavir-resistant HBV infected in human Huh-7 cells assessed as reduction in HBV DNA production by real-time qPCR analysis; type: functional, organism-based
[31] = test system: Hepatitis B virus; test: Antiviral activity against HBV D1 infected in human HepG2.2.15 cells assessed as reduction in HBV DNA production by real-time qPCR analysis; type: functional, organism-based; details: D1, HepG2.2.15
[32] = test system: Huh-7; test: Cytotoxicity against human Huh-7 cells assessed as reduction in cell viability by MTT assay; type: functional

Compound: O=C(/C=C/c1ccc(O)c(O)c1)OCCc1ccc(O)c(O)c1
CC50 [1]: 229 µM

Compound: NC(Cc1cc(O)c(O)cc1O)C(=O)O (centres undefined)
EC50 [2]: 16.1 µM | IC50 [3]: 6.6 µM | IC50 [4]: 21 µM | CC50 [5]: 66 µM

EC50 [6]: 0.69 µM | EC50 [7]: 0.11 µM
Compound: C/C(=N\c1ccccc1N)c1c(C)cc(=O)n(O)c1O

EC50 [6]: 0.69 µM
Compound: O=C1Cc2ccccc2C(=O)N1O
CC50 [8]: > 100 µM | CC50 [9]: > 100 µM

Compound: Clc1ccc(/C=C/c2cc(Cl)cc(Cl)c2)cc1
EC50 [10]: 13.3 µM | EC50 [11]: 14.4 µM | EC50 [12]: 16.4 µM

EC50 [13]: 0.74 µM | EC50 [15]: 0.48 µM
Compound: C=CCNc1nc(N)c(/C(N)=N\C#N)s1
CC50 [14]: 7.2 µM

EC50 [6]: 0.69 µM
Compound: O=C(Nc1ccccc1)C1C(=O)N(O)C(=O)c2ccccc21 (centres undefined)

EC50 [6]: 0.69 µM
Compound: O=C(Nc1ccc(F)cc1)C1C(=O)N(O)C(=O)c2ccccc21 (centres undefined)

EC50 [6]: 0.69 µM
Compound: O=C(NCc1ccccc1)C1C(=O)N(O)C(=O)c2ccccc21 (centres undefined)

EC50 [6]: 0.69 µM
Compound: COc1ccc(CNC(=O)C2C(=O)N(O)C(=O)c3ccccc32)cc1 (centres undefined)

EC50 [6]: 0.69 µM
Compound: COc1ccc2c(c1)C(=O)N(O)C(=O)C2C(=O)NCc1ccc(F)cc1 (centres undefined)

EC50 [6]: 0.69 µM
Compound: O=C(NCc1ccc(F)cc1)C1C(=O)N(O)C(=O)c2cc(Cl)ccc21 (centres undefined)

Compound: O=C(CCc1ccc(O)c(O)c1)OCCc1ccc(O)c(O)c1
CC50 [1]: 229 µM

EC50 [18]: 0.4 µM
Compound: COC(=O)c1c(CCl)cc(O)c(=O)c(O)c1C(=O)OC
CC50 at 1 h [16]: > 100 µM | CC50 [17]: > 80 µM | CC50 at 1 h [19]: > 100 µM

EC50 [22]: 0.049 µM
Compound: CC(=O)c1cc(O)c(=O)c(O)cc1C
CC50 at 72 h [20]: > 100 µM | CC50 at 72 h [21]: > 100 µM

EC50 [6]: 0.69 µM
Compound: CCN(CC)C(=O)C1C(=O)N(O)C(=O)c2ccccc21 (centres undefined)

Compound: NC(=O)C(Cc1ccc(O)c(O)c1)OC(=O)/C=C/c1ccc(O)c(O)c1 (centres undefined)
CC50 [1]: 229 µM

IC50 [23]: 8 µM
Compound: COc1ccc(-c2cccc(Nc3cc(=O)n(O)c(=O)[nH]3)c2)cc1
CC50 [24]: > 100 µM

IC50 [23]: 5.5 µM
Compound: O=c1cc(Nc2cccc(-c3ccc(F)cc3)c2)[nH]c(=O)n1O
CC50 [24]: > 100 µM

EC50 [22]: 0.049 µM
Compound: C/C(=N\OCc1ccc(F)cc1)c1c(C)cc(=O)n(O)c1O
CC50 at 72 h [20]: > 100 µM | CC50 at 72 h [21]: > 100 µM

EC50 [22]: 0.049 µM
Compound: Cc1c(O)c2cc(Br)cnc2n(O)c1=O
CC50 at 72 h [20]: > 100 µM | CC50 at 72 h [21]: > 100 µM

EC50 [7]: 0.11 µM
Compound: CC(=NOCc1ccccc1F)c1c(C)cc(=O)n(O)c1O

EC50 [7]: 0.11 µM
Compound: CC(=NOc1ccccc1)c1c(C)cc(=O)n(O)c1O

EC50 [7]: 2.4 µM
Compound: COC(=O)C1C(=O)N(O)C(=O)c2cc(NC(=O)c3ccccc3)ccc21 (centres undefined)

IC50 [26]: 7.31 µM
Compound: N=C(N)SCCc1ccc(OCc2ccc([N+](=O)[O-])cc2)cc1
CC50 [25]: 41.9 µM | CC50 [27]: 37.4 µM

Compound: N#C[C@]1(CO)/C(=C\F)[C@@H](n2cnc3c(=O)[nH]c(N)nc32)C[C@@H]1O
IC50 [28]: 0.7 µM | IC50 [29]: 14.1 µM | IC50 [30]: 77.5 µM | IC50 [31]: 1.8 µM | CC50 [32]: 169 µM

EC50 [7]: 0.11 µM
Compound: CC(=NOCc1ccccc1)c1c(C)cc(=O)n(O)c1O

From ChEMBL document CHEMBL5620351, “Advancing beyond reverse transcriptase inhibitors: The new era of hepatitis B polymerase inhibitors” (Eur J Med Chem, 2023)
